{"source": "paper PMC2359721", "about": "(British Journal of Cancer, 2007)", "key": {"[1]": {"design": "method as in Torrance et al, 2000", "settings": "ref Torrance et al, 2000; cited from earlier work"}, "[2]": {"tested_on": "gefitinib-resistant kinases", "design": "method as in Carter et al, 2005; Kwak et al, 2005", "settings": "preclinical studies, ref Carter et al, 2005, Kwak et al; cited from earlier work"}, "EGFR phosphorylation": {"tested_on": "EGFR phosphorylation", "design": "method as in Torrance et al, 2000", "settings": "xenograft model; ref Torrance et al, 2000; cited from earlier work"}, "[3]": {"target": "vascular endothelial growth factor 2", "settings": "at concentrations 100- to 1000-fold higher; ref Boehringer-Ingelheim, data on file; cited from earlier work"}, "[4]": {"settings": "minipig, in vivo; cited from earlier work"}, "advanced solid tumours [5]": {"tested_on": "advanced solid tumours", "settings": "cited from earlier work"}, "[6]": {"assay": "Phase I safety, DLT and MTD, OD 14 days on / 14 days off", "assay_type": "in vivo", "protocol": "Tablets were taken 1 h before breakfast. A cycle was defined as 14 days on treatment followed by 14 days off medication. […] The starting dose corresponded with one-fifth of the toxic dose low in rats, the most sensitive species. The dose for successive cohorts was doubled until observation of drug-related AE grade ⩾2 according to common toxicity criteria v3.0 in one or more patients in the first cycle. Thereafter escalation steps were ⩽50%. Should DLT be observed in one out of six patients and dose escalation continued, escalation steps were ⩽35%. Initially, three patients were treated per dose level. If one patient experienced drug-related DLT, three additional patients were treated. When no further patient experienced DLT, the dose was escalated. When ⩾2/6 patients experienced DLT, three additional patients were treated 1 dose tier below unless six had already been treated there.\nMaximum tolerated dose was defined as the highest dose with ⩽1/6 patients experiencing DLT during cycle 1. Dose-limiting toxicity was defined as grade 3 or 4 nonhaematological toxicity except untreated nausea, vomiting, or diarrhoea; grade 4 haematological toxicity; grade 3 diarrhoea, nausea, or vomiting despite supportive care; need for loperamide for ⩾7 days to treat or prevent grade ⩾2 diarrhoea; need for continuous administration of 5HT-3 antagonists or dexamethasone to treat or prevent grade ⩾2 nausea or vomiting; occurrence of grade ⩾2 cardiac left ventricular function or renal toxicity. In the absence of DLT or disease progression, patients received six cycles and were allowed to continue in an extension protocol. Intrapatient dose escalation was not allowed. The study was approved by local Ethics Committees, and all patients provided written informed consent.\n(§1) Prior to therapy, medical history taking and physical examination were performed. A complete blood cell count (CBC), white blood cell (WBC) differential and serum biochemistry were performed, as were urinalysis, electrocardiogram, MUGA scanning and, chest X-ray. Weekly evaluations during cycles 1 and 2 and every other week thereafter included physical examination, AE assessment, CBC, WBC differential and serum chemistry including renal function. Tumour measurements and MUGA scanning were performed every other cycle. Response was assessed using RECIST ([Therasse et al, 2000])."}, "advanced solid tumours [7]": {"tested_on": "advanced solid tumours", "assay": "Antitumour activity (RECIST)", "assay_type": "in vivo, human", "protocol": "as §1"}, "epidermal keratinocytes": {"tested_on": "epidermal keratinocytes", "assay": "Pharmacodynamics in paired skin biopsies (immunohistochemistry)", "assay_type": "in vivo, human", "settings": "on therapy day 14 cycle 1, all dose levels pooled, 36 paired biopsies; pretreatment 14.0±4.5%; P<0.0001"}, "C-SRC": {"target": "C-SRC", "settings": "at concentrations 100- to 1000-fold higher; ref Boehringer-Ingelheim, data on file; cited from earlier work"}, "[8]": {"tested_on": "A431, MDA-MB-453, NCI-N87 gastric and SKOV-3 ovarian xenografts", "design": "method as in Boehringer-Ingelheim, data on file", "settings": "oral, ref Boehringer-Ingelheim, data on file, cited from earlier work"}, "[9]": {"assay": "Plasma pharmacokinetics in patients (HPLC-MS/MS, noncompartmental)", "settings": "for CL/F / Vd/F / half-life / AUC(0-t) / Cmax / Tmax: human, plasma, oral"}}, "data": [{"smiles": "CCOc1cc2ncc(C#N)c(Nc3ccc(F)c(Cl)c3)c2cc1NC(=O)/C=C/CN(C)C", "note": "[EKB-569]", "values": [{"measurement": "plasma half-life", "setting": "[1]", "value": 2, "unit": "h"}, {"measurement": "inhibition of gefitinib-resistant kinases", "setting": "[2]", "value": "inhibition"}, {"measurement": "duration of inhibition of EGFR phosphorylation", "setting": "EGFR phosphorylation", "value": "> 24", "unit": "h"}]}, {"smiles": "C=CC(=O)Nc1cc2c(Nc3ccc(F)c(Cl)c3)ncnc2cc1OCCCN1CCOCC1", "note": "[CI-1033]", "values": [{"measurement": "inhibition of gefitinib-resistant kinases", "setting": "[2]", "value": "inhibition"}]}, {"smiles": "CCOc1cc2ncc(C#N)c(Nc3ccc(OCc4ccccn4)c(Cl)c3)c2cc1NC(=O)/C=C/CN(C)C", "note": "[HKI-272]", "values": [{"measurement": "inhibition of gefitinib-resistant kinases", "setting": "[2]", "value": "inhibition"}]}, {"smiles": "CN(C)C/C=C/C(=O)Nc1cc2c(Nc3ccc(F)c(Cl)c3)ncnc2cc1O[C@H]1CCOC1", "note": "[BIBW 2992]", "values": [{"measurement": "kinase inhibition", "setting": "[3]", "value": "not inhibited"}, {"measurement": "organs in which toxicity occurred", "setting": "[4]", "value": "gastrointestinal tract"}, {"measurement": "patients with partial tumour responses", "setting": "advanced solid tumours [5]; adenocarcinoma of the lung, ref Shaw et al, 2006", "value": "two"}, {"measurement": "LVEF changes in additional trials", "setting": "advanced solid tumours [5]; preliminary data from ⩾120 patients, ref Agus et al, 2006, Shaw et al", "value": "not indicated significant LVEF changes"}, {"measurement": "Maximum tolerated dose", "setting": "[6]; OD 14 days on, 14 days off", "value": 70, "unit": "mg"}, {"measurement": "recommended dose (phase 2)", "setting": "[6]; OD, 14-day on, 14-day off schedule", "value": 70, "unit": "mg"}, {"measurement": "incidence of diarrhoea", "setting": "[6]; human, in vivo", "value": 84, "unit": "%"}, {"measurement": "incidence of gastrointestinal AE", "setting": "[6]; human, in vivo", "value": 92, "unit": "%"}, {"measurement": "onset of diarrhoea", "setting": "[6]; human, in vivo", "value": "≤ 7", "unit": "days"}, {"measurement": "overall incidence of rash, acne and dry skin", "setting": "[6]; human, in vivo", "value": 95, "unit": "%"}, {"measurement": "patients with grade 1 anemia", "setting": "[6]; human, in vivo", "value": 6, "unit": "patients"}, {"measurement": "patients with mild fatigue", "setting": "[6]; human, in vivo", "value": 24, "unit": "patients"}, {"measurement": "patients with mild gastrointestinal AE (diarrhoea, nausea, vomiting)", "setting": "[6]; human, in vivo", "value": 35, "unit": "patients"}, {"measurement": "patients with self-limiting epistaxis", "setting": "[6]; human, in vivo", "value": 20, "unit": "patients"}, {"measurement": "DLT observed in cycle 1, initial 70 mg cohort", "setting": "[6]; in vivo", "value": "one"}, {"measurement": "patients with LVEF reduction", "setting": "[6]; in vivo", "value": "Two"}, {"measurement": "patients with grade 1 thrombocytopaenia", "setting": "[6]; in vivo", "value": "two"}, {"measurement": "patients with grade 2 ALT", "setting": "[6]; in vivo", "value": "three"}, {"measurement": "patients with grade 2 AST", "setting": "[6]; in vivo", "value": "four"}, {"measurement": "patients with grade 2 alkaline phosphatase", "setting": "[6]; in vivo", "value": "five"}, {"measurement": "patients with grade 2 bilirubin", "setting": "[6]; in vivo", "value": "two"}, {"measurement": "objective response", "setting": "advanced solid tumours [7]; 38 patients, 10–100 mg", "value": "No partial or complete responses"}, {"measurement": "patients with minor tumour regressions", "setting": "advanced solid tumours [7]; all treated at doses of ⩾45 mg", "value": "Eight"}, {"measurement": "median number of cycles in patients with stable disease", "setting": "advanced solid tumours [7]; patients with stable disease ⩾4 cycles", "value": "6 (range 5–9) cycles"}, {"measurement": "patients with stable disease lasting ⩾4 cycles", "setting": "advanced solid tumours [7]; various tumour types", "value": "seven"}, {"measurement": "percentage Ki-67-positive cells (means±s.d.)", "setting": "epidermal keratinocytes", "value": "7.9±4.5", "unit": "%"}, {"measurement": "kinase inhibition", "setting": "C-SRC", "value": "not inhibited"}, {"measurement": "tumour regression", "setting": "[8]; mice with A431, MDA-MB-453, NCI-N87 gastric, SKOV-3 ovarian models", "value": "induced tumour regression"}, {"measurement": "plasma concentrations at which tumour regression was induced", "setting": "[8]; xenograft models in mice", "value": "80 to 280", "unit": "nM"}, {"measurement": "time to reach steady state", "setting": "[9]; OD dosing", "value": "≤ 8", "unit": "days"}, {"measurement": "CL/F", "setting": "[9]", "value": "383 to 1390", "unit": "mL/min"}, {"measurement": "Vd/F", "setting": "[9]", "value": "1250 to 4760", "unit": "L"}, {"measurement": "half-life", "setting": "[9]", "value": "28 to 43", "unit": "h"}, {"measurement": "AUC(0-t)", "setting": "[9]; 10 mg", "value": 0.199, "unit": "µg·h/mL"}, {"measurement": "CL/F", "setting": "[9]; 10 mg", "value": 839, "unit": "mL/min"}, {"measurement": "Cmax", "setting": "[9]; 10 mg", "value": 0.0141, "unit": "µg/mL"}, {"measurement": "Tmax", "setting": "[9]; 10 mg", "value": 2.98, "unit": "h"}, {"measurement": "Vd/F", "setting": "[9]; 10 mg", "value": 2610, "unit": "L"}, {"measurement": "half-life", "setting": "[9]; 10 mg", "value": 35.9, "unit": "h"}, {"measurement": "AUC(0-t)", "setting": "[9]; 20 mg", "value": 0.241, "unit": "µg·h/mL"}, {"measurement": "CL/F", "setting": "[9]; 20 mg", "value": 1390, "unit": "mL/min"}, {"measurement": "Cmax", "setting": "[9]; 20 mg", "value": 0.0162, "unit": "µg/mL"}, {"measurement": "Tmax", "setting": "[9]; 20 mg", "value": 4, "unit": "h"}, {"measurement": "Vd/F", "setting": "[9]; 20 mg", "value": 4760, "unit": "L"}, {"measurement": "half-life", "setting": "[9]; 20 mg", "value": 39.7, "unit": "h"}, {"measurement": "AUC(0-t)", "setting": "[9]; 30 mg", "value": 1.31, "unit": "µg·h/mL"}, {"measurement": "CL/F", "setting": "[9]; 30 mg", "value": 383, "unit": "mL/min"}, {"measurement": "Cmax", "setting": "[9]; 30 mg", "value": 0.111, "unit": "µg/mL"}, {"measurement": "Tmax", "setting": "[9]; 30 mg", "value": 0.95, "unit": "h"}, {"measurement": "Vd/F", "setting": "[9]; 30 mg", "value": 1250, "unit": "L"}, {"measurement": "half-life", "setting": "[9]; 30 mg", "value": 37.7, "unit": "h"}, {"measurement": "AUC(0-t)", "setting": "[9]; 45 mg", "value": 0.84, "unit": "µg·h/mL"}, {"measurement": "CL/F", "setting": "[9]; 45 mg", "value": 893, "unit": "mL/min"}, {"measurement": "Cmax", "setting": "[9]; 45 mg", "value": 0.0684, "unit": "µg/mL"}, {"measurement": "Tmax", "setting": "[9]; 45 mg", "value": 3, "unit": "h"}, {"measurement": "Vd/F", "setting": "[9]; 45 mg", "value": 3350, "unit": "L"}, {"measurement": "half-life", "setting": "[9]; 45 mg", "value": 43.4, "unit": "h"}, {"measurement": "AUC(0-t)", "setting": "[9]; 70 mg", "value": 2.62, "unit": "µg·h/mL"}, {"measurement": "CL/F", "setting": "[9]; 70 mg", "value": 445, "unit": "mL/min"}, {"measurement": "Cmax", "setting": "[9]; 70 mg", "value": 0.18, "unit": "µg/mL"}, {"measurement": "Tmax", "setting": "[9]; 70 mg", "value": 2, "unit": "h"}, {"measurement": "Vd/F", "setting": "[9]; 70 mg", "value": 1530, "unit": "L"}, {"measurement": "half-life", "setting": "[9]; 70 mg", "value": 39.6, "unit": "h"}, {"measurement": "AUC(0-t)", "setting": "[9]; 85 mg", "value": 2.34, "unit": "µg·h/mL"}, {"measurement": "CL/F", "setting": "[9]; 85 mg", "value": 604, "unit": "mL/min"}, {"measurement": "Cmax", "setting": "[9]; 85 mg", "value": 0.163, "unit": "µg/mL"}, {"measurement": "Tmax", "setting": "[9]; 85 mg", "value": 2, "unit": "h"}, {"measurement": "Vd/F", "setting": "[9]; 85 mg", "value": 1610, "unit": "L"}, {"measurement": "half-life", "setting": "[9]; 85 mg", "value": 30.8, "unit": "h"}, {"measurement": "AUC(0-t)", "setting": "[9]; 100 mg", "value": 2.75, "unit": "µg·h/mL"}, {"measurement": "CL/F", "setting": "[9]; 100 mg", "value": 606, "unit": "mL/min"}, {"measurement": "Cmax", "setting": "[9]; 100 mg", "value": 0.234, "unit": "µg/mL"}, {"measurement": "Tmax", "setting": "[9]; 100 mg", "value": 1, "unit": "h"}, {"measurement": "Vd/F", "setting": "[9]; 100 mg", "value": 1500, "unit": "L"}, {"measurement": "half-life", "setting": "[9]; 100 mg", "value": 28.6, "unit": "h"}]}]}
